In US8669244B2, “Cucurbitane-triterpenoid compounds, pharmaceutical composition, use and preparation method thereof” (National Taiwan University, priority 2011, dated 2014):
One block for each compound: values may come before it.

Experiments:
[1] = target: T1, GAL4-hERβ ligand binding domain (LBD) chimeric receptor (Homo sapiens, UniProt Q92731); assay: Transactivation assay for estrogen receptor, ALP reporter, compound alone (ERβ); assay type: cell-based; settings: for Maximum activation for ERβ: concentration not given; for Activation of ERβ: under tested condition (maximum tolerable 2 μM); for EC50: compound alone
T1 construct: expressed in transfected cells; host or cells: CHO-K1 (Chinese hamster cells), transient co-transfection with (UAS)4-ALP reporter plasmid
Excerpt: (§1) 1. Estrogen Activity Analysis: Transactivation Assay for Estrogen Receptor
(§2) Plasmid pBKCMV containing GAL4-hERα (or ERβ) ligand binding domain (LBD) chimeric receptors and plasmid containing (UAS)4-alkaline phosphatase (ALP) […] were co-transfected into Chinese hamster cells (CHO-K1). Compounds with estrogenic activity would interact with estrogen-specific ER to induce the binding of GAL4 and upstream activation sequence (UAS)4 specifically to initiate the expression of ALP gene. Therefore, the ALP activity can be used to determine whether the samples to be assayed have the estrogenic activity.
(§3) The CHO-K1 cell purchased from the Food Industry Research and Development Institute Taiwan with an accession number of CCRC 60006 were cultivated with medium containing 10% FBS and Ham's F12 nutrient mixture (GIBCOBRL). Cells in high confluence were plated onto 96-well culture plate the day before transfection. The plate was then washed to remove the serum during the day of transfection, followed by addition of two plasmid DNA, GAL4-hER[…] and (UAS)4-ALP in the ratio of 1:1 together with Lipofectamine 2000 (GIBCOBRL) transfection agent and culture medium to form DNA-liposome complex for 5 hours. The sample to be assayed was added into the medium of transfected cells and cultivated for two days. The medium was aliquoted for ALP assay using 4-Nitrophenul phosphate disodium salt hexahydrate (pNPP) as the colorimetric substrate for alkaline phosphatase, and reading the absorbance of 405 nm.

[2] = target: T2, GAL4-hERα ligand binding domain (LBD) chimeric receptor (Homo sapiens, UniProt P03372); assay: Transactivation assay, combination treatment with 1 nM E2 (ERα); assay type: cell-based
T2 construct: expressed in transfected cells; host or cells: CHO-K1 (Chinese hamster cells), transient co-transfection with (UAS)4-ALP reporter plasmid
T2 sequence (P03372 311-547 limits assumed): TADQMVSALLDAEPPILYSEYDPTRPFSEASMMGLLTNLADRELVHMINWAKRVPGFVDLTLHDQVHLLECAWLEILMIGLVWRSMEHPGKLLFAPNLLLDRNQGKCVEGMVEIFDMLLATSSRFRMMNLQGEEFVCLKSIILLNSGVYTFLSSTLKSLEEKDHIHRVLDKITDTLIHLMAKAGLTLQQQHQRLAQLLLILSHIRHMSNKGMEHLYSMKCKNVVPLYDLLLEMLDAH
Excerpt: as §2, §3

[3] = target: T1, GAL4-hERβ ligand binding domain (LBD) chimeric receptor; assay: Transactivation assay, combination treatment with 1 nM E2 (ERβ); assay type: cell-based
Excerpt: as §2, §3

[4] = target: T2, GAL4-hERα ligand binding domain (LBD) chimeric receptor; assay: Transactivation assay for estrogen receptor, ALP reporter, compound alone (ERα); assay type: cell-based; settings: for Maximum activation for ERα: concentration not given; for Activation of ERα: under tested condition (maximum tolerable 2 μM)
Excerpt: as §1, §2
Cells in high confluence were plated onto 96-well culture plate the day before transfection. The plate was then washed to remove the serum during the day of transfection, followed by addition of two plasmid DNA, GAL4-hER[…] and (UAS)4-ALP in the ratio of 1:1 together with Lipofectamine 2000 (GIBCOBRL) transfection agent and culture medium to form DNA-liposome complex for 5 hours. The sample to be assayed was added into the medium of transfected cells and cultivated for two days.

CHO-K1 cells = assay: Cytotoxicity to the cells of the transactivation assay; assay type: cell-based, Chinese hamster

T1 sequence (Q92731 264-498 limits assumed, change not shown): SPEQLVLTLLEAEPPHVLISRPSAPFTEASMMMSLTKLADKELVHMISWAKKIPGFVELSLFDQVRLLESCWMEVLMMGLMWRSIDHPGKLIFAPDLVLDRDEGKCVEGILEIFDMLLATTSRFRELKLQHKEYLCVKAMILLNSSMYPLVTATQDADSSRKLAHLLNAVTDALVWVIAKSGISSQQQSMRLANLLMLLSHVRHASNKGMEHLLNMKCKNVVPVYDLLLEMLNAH

SMILES: CC(C)=CC(O)C[C@@H](C)[C@H]1CC[C@@]2(C)[C@@H]3C=C[C@@]45OC[C@]3(CC[C@]12C)C4CC[C@H](O)C5(C)C (single isomer, unassigned) [compound 6, 5β,19-epoxycucurbita-6,24-dien-3β,23ξ-diol]
Maximum activation effect for ERβ ([1]; at 22 μM, relative to 1 nM E2): 23 % of E2
ALP activity, E2-induced ERα activation remaining (E2 = 100%) ([2]; 22 μM compound + 1 nM E2): 10%
ALP activity, E2-induced ERβ activation remaining (E2 = 100%) ([3]; 22 μM compound + 1 nM E2): 24%
Maximum activation effect for ERα ([4]; at 22 μM, relative to 1 nM E2): 30 % of E2

SMILES: CC(C)=C/C=C/[C@@H](C)[C@H]1CC[C@@]2(C)[C@@H]3C=C[C@@]45OC(=O)[C@]3(CC[C@]12C)C4CC[C@H](O)C5(C)C (stereo partly drawn) [compound 1, cucurbita-6,22(E),24-trien-3β-ol-19,5β-olide]
Maximum activation for ERβ ([1]; relative to 1 nM E2): 10 % of E2
Maximum activation for ERα ([4]; relative to 1 nM E2): 12 % of E2

SMILES: CC(C)=C/C=C/[C@@H](C)[C@H]1CC[C@@]2(C)[C@@H]3C=C[C@@]45OC(O)[C@]3(CC[C@]12C)C4CC[C@H](O)C5(C)C (stereo partly drawn) [compound 2, 5β,19-epoxycucurbita-6,22(E),24-trien-3β,19-diol]
Maximum activation for ERβ ([1]; relative to 1 nM E2): 8 % of E2
Maximum activation for ERα ([4]; relative to 1 nM E2): 15 % of E2

SMILES: CC(C)=C/C=C/[C@@H](C)[C@H]1CC[C@@]2(C)[C@@H]3C=CC4=C(CC[C@H](O)C4(C)C)[C@]3(C=O)CC[C@]12C [compound 3, 3β-hydroxycucurbita-5(10),6,22(E),24-tetraen-19-al]
Activation of ERβ [1]: no significant activation
ALP activity, E2-induced ERα activation remaining (E2 = 100%) ([2]; 2 μM compound + 1 nM E2): 48%
ALP activity, E2-induced ERβ activation remaining (E2 = 100%) ([3]; 2 μM compound + 1 nM E2): 73%
Cytotoxicity: maximum tolerable concentration for cells (CHO-K1 cells): 2 µM
Activation of ERα [4]: no significant activation

SMILES: COC(OC)[C@@]12CC[C@]3(C)[C@@H]([C@H](C)/C=C/C=C(C)C)CC[C@@]3(C)[C@@H]1C=CC1=C2CC[C@H](O)C1(C)C [compound 4, 19-dimethoxycucurbita-5(10),6,22(E),24-tetraen-3β-ol]
Activation of ERβ [1]: no significant activation
Cytotoxicity: maximum tolerable concentration for cells (CHO-K1 cells): 2 µM
Activation of ERα [4]: no significant activation

SMILES: CC(C)=C/C=C/[C@@H](C)[C@H]1CC[C@@]2(C)c3ccc4c(c3CC[C@]12C)CC[C@H](O)C4(C)C [compound 5, 19-nor-cucurbita-5(10),6,8,22(E),24-pentaen-3β-ol]
Maximum activation for ERβ ([1]; relative to 1 nM E2): 9 % of E2
E2 induced activation of ERβ remaining ([3]; 1 μM compound + 1 nM E2, p<0.05): 83 % of E2
Maximum activation for ERα ([4]; relative to 1 nM E2): 15 % of E2

Maximum activation of ERβ ([1]; at 51 μM): 20 % of E2
EC50 [1]: 16.7 µM
Maximum activation of ERα with E2 ([2]; 102 μM + 1 nM E2): 146 % of E2
Maximum activation of ERβ with E2 ([3]; 51 μM + 1 nM E2): 145 % of E2
Maximum activation of ERα ([4]; at 102 (unit not given)): 24 % of E2
EC50 ([4]; compound alone): 14.2 µM
SMILES: CC1(C)C[C@H](O)C[C@@]2(C)OC(=O)C=C12 [loliolide, Loliolide]

Maximum activation of ERβ ([1]; at 35 μM): 26 % that of E2
EC50 [1]: 11.8 µM
Maximum activation of ERβ with E2 ([3]; lutein at 18 (unit not given) + 1 nM E2): 166 % that of E2
SMILES: CC1=C[C@H](O)CC(C)(C)[C@H]1/C=C/C(C)=C/C=C/C(C)=C/C=C/C=C(C)/C=C/C=C(C)/C=C/C1=C(C)C[C@@H](O)CC1(C)C [lutein, Lutein]
